# Laboratory results: PMC6222706, “Evaluation of the Antioxidant and Neuroprotectant Activities of New Asymmetrical 1,3-Diketones” (Molecules : A Journal of Synthetic Chemistry and Natural …, 2018)
# Experiments:
# [1] = FRAP (Ferric Reducing Antioxidant Power) assay; type: biochemical; conditions: for FRAP-TEAC100: Trolox Equivalent Antioxidant Capacity vs 100 µM solution of the substance, from FRAP assay; for FRAP Assay (%) at 100 µM / FRAP Assay (%) at 200 µM: 30 min, 593 nm
# Experimental: The assay was carried out according to the method of Benzie et al. with slight modifications, in a 96-well microplate. FRAP reagent was prepared by mixing 10 mL of 300 mM acetate buffer with 1 mL of 10 mM 2,4,6-tripyridyl-S-triazine (TPTZ) in HCl 40 mM and 1mL of FeCl3·6H2O 20 mM. Firstly, 190 µL of the FRAP reagent were added to all wells of the 96-well plate, followed by the addition to the well of 10 µL of the test compounds dissolved in Ethanol to reach the final concentrations assayed (0, 5, 10, 20, 50, 100, 150, 200 µM). After 30 min incubation in the dark, the absorbance was read at 593 nm. Trolox was used as assay control. Three different assays were carried out by quadruplicate for each compound.
# [2] = tested on: SH-SY5Y cells; assay: Mitochondrial membrane potential (JC-1, microplate reader) in SH-SY5Y cells under H2O2; type: cell-based, human; conditions: SH-SY5Y, compound at different concentrations for 24 h, then 200 µM H2O2 for 24 h, JC-1
# Experimental: To know whether β-diketones 6b and 7b will protect the mitochondrial membrane from depolarization under oxidative stress conditions, MMP experiments were carried out with the cationic dye JC-1 (5,5′,6,6′-tetrachloro-1,1′,3,3′-tetraethylbenzimi-dazolylcarbocyanine iodide). JC-1 enters selectively into mitochondria and reversibly change color from red to green as the membrane potential decrease. In healthy cells, JC-1 forms red fluorescent J-aggregates while in apoptotic cells with low MMP, JC-1 remains as monomers with green fluorescence. The ratio of J-aggregates to J-monomers is an indication of healthy non-apoptotic cells.
# The fluorescent dye 5,5′,6,6′-tetrachloro-1,1′,3,3′-tetraethylbenzimidazolylcarbocyanine iodide (JC-1) was used for measuring MMP [111]. A decrease in fluorescence intensity represents mitochondrial membrane depolarization. For fluorescence ratio detection under oxidative stress conditions, 96 well plates were seeded with 3 × 10^3 SH-SY5Y cells and after 24 h incubation they were treated with test compound and left out for 24 h. Then, cells were exposed to different H2O2 concentrations for 24 h. After the incubation period, cells were washed twice with Hanks buffer and then stained with 5 µM JC-1 in culture media in dark, in a CO2 incubator at 37 °C for 20 min. At the end of the dye incubation period, cells were washed three times with Hanks buffer and 200 µL of fresh buffer was added. Cells were analyzed with a Varioskan microplate reader. J-aggregates red fluorescence intensity was measured at 535 nm excitation and 595 nm emission wavelength, while excitation at 485 nm and emission 535 nm wavelength was used for J-monomers green fluorescence. Results were expressed as the ratio of fluorescence intensity of J-aggregates to J-monomers. […] JC-1 aggregates show red fluorescence (peak emission at 590 nm) measured in the FL2 channel. Thus, healthy non-apoptotic cells are detected in both FL1 and FL2 channels, while cells with disrupted mitochondrial function show fluorescence in FL1 channel but reduced FL2 intensity.
# [3] = Chemical stability in 10 mM PBS; type: physicochemical; conditions: 6b, 7b at 400 µM, curcumin at 50 µM
# Experimental: It is also important to know compound integrity at those concentrations used in biological assays, and for that, the chemical stability was determined in 10 mM PBS after 6 h, 24 h and 48 h.
# In parallel compound saturation solutions were obtained and filtered from 20 mM compound stock in DMSO. So, 10 µL of 20 mM stock solution were dispensed to 190 µL of PBS 10 mM. The solutions were mixed, shaken in a microplate shaker for two hours, and then 160 µL of each solution were filtered and transferred to a new well plate for UV absorption measure. The compound stability in PBS 10 mM was determined at 24, 48 and 72 h with solutions prepared as those for the compound calibration curve.
# [4] = Iron chelation capacity (Fe^+2-ferrozine complex); type: biochemical; conditions: aqueous media; for Fe^2+ binding capacity: 50 µM compound; for Fe^2+ chelating capacity: 200 µM compound
# Experimental: To decrease the level of free Fe^2+ that can reduce H2O2 to the ^•OH radical and produce other ROS, it is worth to evaluate the iron chelation capacity of new potential AOX compounds as potential new therapeutic agents against neurodegenerative diseases. […] In this assay ferrozine form complexes with Fe^+2 in a quantitative manner, and in the presence of chelating compounds this complex is disrupted.
# The iron chelation capacity was determined according to the method of Dinis et al., using ferrous chloride instead of ferrous sulfate. In this method, ferrozine can form complexes with a ferrous ion in a quantitative way yielding a red color with maximum absorbance at 562 nm. In the presence of other iron chelators, a decoloration is observed due to the competition with ferrozine for the metal. The assay was carried out in a 96 well plate. Serial dilutions of test compound (0, 5, 10, 25, 50, 100, 150, 200 µM) were dispensed (180 µL) into each well and then 10 µL of FeCl2 1 mM were added (final FeCl2 concentration, […]). After shaking the plate for 1 min, 10 µL of Ferrozine 2 mM were added. The mixture was shaken thoroughly and left to stand for 20 min at room temperature. The absorbance was measured at 562 nm with a Varioskan microplate reader. […] The compound iron chelation activity was calculated as the percentage of inhibition of the Fe^+2-Ferrozine complex by the formula in Equation (3):%Inhibition = {(Ao − As)/Ao} × 100(3) where Ao is the absorbance of the control, and As is the absorbance in the presence of the test compound. EDTA was used as a positive control. All the experiments were performed three times by quadruplicate for each compound concentration.
# [5] = tested on: SH-SY5Y cells; assay: LDH release assay in H2O2-treated SH-SY5Y cells; type: cell-based, human; conditions: compound 5-50 µM for 24 h, then 200 µM H2O2 for 24 h
# Experimental: Additionally, the protection effect of 6b and 7b on cell death induced by 200 µM H2O2 was determined by measuring the lactate dehydrogenase (LDH) release in cell culture medium.
# SH-SY5Y 96-well plates at a density of 5 × 10^3 cells/well and grown in the incubator for 24 h. Cells were pretreated for 24 h with different compound concentrations (5, 10, 20, 30, 40, 50 µM) and then exposed to 200 µM H2O2 for 24 h. Then, the supernatant was used in the LDH assay and the absorbance measured at 490nm in a Varioskan microplate reader after 30 min, according to the manufacturer’s instructions (LDH Cytotoxicity Assay Kit, Pierce^TM, Thermo Fisher Scientific, Vantaa, Finland). LDH leakage was calculated as the percentage of the control group.
smiles,measurement,setting,value
"O=C(/C=C(O)/C=C/c1ccc(O)c(F)c1F)C(F)(F)F [Compound 7b, (3Z,5E)-6-(2,3-Difluoro-4-hydroxyphenyl)-1,1,1-trifluoro-4-hydroxyhexa-3,5-dien-2-one]",FRAP-TEAC100,[1],0.16
same,FRAP Assay (%) at 100 µM,[1],8.8%
same,FRAP Assay (%) at 200 µM,[1],15.3%
same,MMP recovery,[2],18–25%
same,Remaining Compound (%) 0 h,[3],100%
same,Remaining Compound (%) 6 h,[3],95.7 ± 1.0%
same,Remaining Compound (%) 24 h,[3],90.9 ± 1.2%
same,Remaining Compound (%) 48 h,[3],87.8 ± 2.3%
same,Fe^2+ binding capacity,[4],7–8%
same,Fe^2+ chelating capacity,[4],25–26%
same,LDH leakage,[5],reduced the LDH leakage
"O=C(/C=C(O)/C=C/c1cc(F)c(O)cc1F)C(F)(F)F [Compound 6b, (3Z,5E)-6-(2,5-difluoro-4-hydroxyphenyl)-1,1,1-trifluoro-4-hydroxyhexa-3,5-dien-2-one]",FRAP-TEAC100,[1],0.15
same,FRAP Assay (%) at 100 µM,[1],6.7%
same,FRAP Assay (%) at 200 µM,[1],11.3%
same,MMP recovery,[2],18–25%
same,Remaining Compound (%) 0 h,[3],100%
same,Remaining Compound (%) 6 h,[3],96.1 ± 0.5%
same,Remaining Compound (%) 24 h,[3],92.2 ± 1.6%
same,Remaining Compound (%) 48 h,[3],90.4 ± 3.0%
same,Fe^2+ binding capacity,[4],7–8%
same,Fe^2+ chelating capacity,[4],25–26%
same,LDH leakage,[5],reduced the LDH leakage
